For one compound, Ki results are on record in patent US6455570B1, “Polypyrrolinone based inhibitors of matrix metalloproteases” (The Trustees of the University of Pennsylvania, priority 2000, dated 2002).

Type in all cases: biochemical
One assay deals with T1, gelatinase (MMP-2) (Homo sapiens, UniProt P08253).
T1 sequence (P08253 110-660): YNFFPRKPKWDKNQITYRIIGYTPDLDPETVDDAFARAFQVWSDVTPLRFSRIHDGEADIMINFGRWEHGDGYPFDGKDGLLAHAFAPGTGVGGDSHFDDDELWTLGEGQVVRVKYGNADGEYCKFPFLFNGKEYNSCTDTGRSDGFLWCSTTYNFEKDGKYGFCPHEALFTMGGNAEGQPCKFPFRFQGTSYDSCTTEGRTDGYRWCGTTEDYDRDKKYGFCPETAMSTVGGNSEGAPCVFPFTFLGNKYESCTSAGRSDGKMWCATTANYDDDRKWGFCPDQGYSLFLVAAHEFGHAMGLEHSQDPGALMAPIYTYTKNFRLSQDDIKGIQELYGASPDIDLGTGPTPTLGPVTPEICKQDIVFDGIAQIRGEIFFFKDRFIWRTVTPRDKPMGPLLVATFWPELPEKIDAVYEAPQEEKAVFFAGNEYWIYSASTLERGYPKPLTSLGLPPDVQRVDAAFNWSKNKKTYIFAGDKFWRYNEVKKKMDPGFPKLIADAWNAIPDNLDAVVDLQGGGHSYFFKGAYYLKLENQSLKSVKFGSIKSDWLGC
Put plainly: metalloprotease activity assay by a published procedure (J. Duan, WO/0059285), gelatinase. As to conditions: read-out: Ki, inhibitory activity against gelatinase (MMP-2). As for the experimental part:
(§1) Compounds of the present invention were assayed for metalloprotease activity by a published procedure (see, for example, J. Duan, WO/0059285). […] (Whittaker, M. et al. Chem. Rev. 1999 99:2735; Borkakoti, N. et al. Struct. Biol. 1994 1:106)

The target in another assay is T2, matrilysin (MMP-7) (Homo sapiens, UniProt P09237).
T2 sequence (P09237 95-267): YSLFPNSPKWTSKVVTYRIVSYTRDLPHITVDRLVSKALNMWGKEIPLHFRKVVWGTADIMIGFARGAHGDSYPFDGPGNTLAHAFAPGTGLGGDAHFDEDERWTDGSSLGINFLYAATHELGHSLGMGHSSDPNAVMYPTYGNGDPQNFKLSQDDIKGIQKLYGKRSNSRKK
Put plainly: metalloprotease activity assay by a published procedure (J. Duan, WO/0059285), matrilysin. As to conditions: read-out: Ki, inhibitory activity against matrilysin (MMP-7). Here is the method:
as §1

Assay [1] addresses membrane type 2 matrix metalloprotease (MMP-15) (Homo sapiens, UniProt P51511). Put plainly: metalloprotease activity assay by a published procedure (J. Duan, WO/0059285), membrane type 2 MMP. As to conditions: read-out: Ki, inhibitory activity against membrane type 2 matrix metalloprotease (MMP-15). As for the experimental part: as §1

Chain of membrane type 2 matrix metalloprotease (MMP-15) (P51511 132-669, species assumed): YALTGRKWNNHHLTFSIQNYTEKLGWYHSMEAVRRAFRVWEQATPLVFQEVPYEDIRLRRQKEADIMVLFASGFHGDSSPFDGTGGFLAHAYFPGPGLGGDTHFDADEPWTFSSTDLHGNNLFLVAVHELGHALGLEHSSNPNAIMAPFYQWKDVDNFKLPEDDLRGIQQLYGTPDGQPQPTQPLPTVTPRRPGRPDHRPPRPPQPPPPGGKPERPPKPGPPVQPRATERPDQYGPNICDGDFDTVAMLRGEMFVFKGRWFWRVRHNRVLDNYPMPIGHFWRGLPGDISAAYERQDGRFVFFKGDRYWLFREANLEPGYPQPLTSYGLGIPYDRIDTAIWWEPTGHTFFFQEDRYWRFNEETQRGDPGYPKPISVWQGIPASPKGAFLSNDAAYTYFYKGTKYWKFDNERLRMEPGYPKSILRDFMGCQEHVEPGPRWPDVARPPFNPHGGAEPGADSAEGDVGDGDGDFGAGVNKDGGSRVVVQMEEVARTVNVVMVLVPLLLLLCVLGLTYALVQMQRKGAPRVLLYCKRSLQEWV

On to `CCOC(=O)C(C)C1=CNC(CC(C)C)(C2=CNC(CC(=O)NO)(CC(C)C)C2=O)C1=O` (single isomer, unassigned; (-)) [(−)-1a, Bispyrrolinone Hydroxamic Acid], for which the Ki (commonly the equilibrium dissociation constant of an inhibitor or competing ligand from its target) was determined as 2.9 µM at gelatinase (MMP-2), 6.4 µM at matrilysin (MMP-7) and 6.8 µM in assay [1].
